Results as given in US20230085307A1, “PYRIDAZINONE COMPOUND AND HERBICIDE” (NISSAN CHEMICAL CORPORATION, priority 2019, published 2023).

Columns and labels:
barnyard grass [1] = assay: Test Example 3: herbicidal effect by foliage application, Wagner pot (Table 18, symbol H); format: in vivo, barnyard grass (Echinochloa crus-galli); conditions: 320 g/ha
How it was run: (§1)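 Plants were sown in alluvial soil held under 0.1–0.5 cm standing water and grown 14 days in a greenhouse at 25–30 °C. An emulsifiable formulation, water-diluted to the set dose, was then sprayed onto the foliage, and effects were scored three weeks later using previously defined criteria.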

Chinese sprangletop = assay: Test Example 3: herbicidal effect by foliage application, Wagner pot (Table 18, symbol D); format: in vivo, chinese sprangletop (Leptochloa chinensis); conditions: 320 g/ha
How it was run: as §1

rice flat sedge = assay: Test Example 3: herbicidal effect by foliage application, Wagner pot (Table 18, symbol E); format: in vivo, rice flat sedge (Cyperus iria); conditions: 320 g/ha
How it was run: as §1

southern crabgrass [2] = assay: Test Example 4: herbicidal effect by soil treatment (Table 19, symbol F); format: in vivo, southern crabgrass (Digitaria ciliaris); conditions: amount of applied herbicide 320 g/ha
How it was run: (§2)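 Step 1: sow seeds in sterilized diluvial soil, cover ~1.5 cm. Step 2: spray diluted emulsion onto soil surface at predetermined rate. Step 3: greenhouse, 25–30° C, three weeks. Step 4: grade effect on each plant by earlier criteria.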

green foxtail [3] = assay: Test Example 4: herbicidal effect by soil treatment (Table 19, symbol G); format: in vivo, green foxtail (Setaria viridis); conditions: amount of applied herbicide 320 g/ha
How it was run: as §2

barnyard grass [4] = assay: Test Example 4: herbicidal effect by soil treatment (Table 19, symbol H); format: in vivo, barnyard grass (Echinochloa crus-galli); conditions: amount of applied herbicide 320 g/ha
How it was run: as §2

wild oat [5] = assay: Test Example 4: herbicidal effect by soil treatment (Table 19, symbol I); format: in vivo, wild oat (Avena fatua); conditions: amount of applied herbicide 320 g/ha
How it was run: as §2

blackgrass [6] = assay: Test Example 4: herbicidal effect by soil treatment (Table 19, symbol J); format: in vivo, blackgrass (Alopecurus myosuroides); conditions: amount of applied herbicide 320 g/ha
How it was run: as §2

Italian ryegrass [7] = assay: Test Example 4: herbicidal effect by soil treatment (Table 19, symbol K); format: in vivo, Italian ryegrass (Lolium multiflorum); conditions: amount of applied herbicide 320 g/ha
How it was run: as §2

windgrass [8] = assay: Test Example 4: herbicidal effect by soil treatment (Table 19, symbol L); format: in vivo, windgrass (Apera spica-venti); conditions: amount of applied herbicide 320 g/ha
How it was run: as §2

velvetleaf [9] = assay: Test Example 4: herbicidal effect by soil treatment (Table 19, symbol M); format: in vivo, velvetleaf (Abutilon theophrasti); conditions: amount of applied herbicide 320 g/ha
How it was run: as §2

redroot pigweed [10] = assay: Test Example 4: herbicidal effect by soil treatment (Table 19, symbol N); format: in vivo, redroot pigweed (Amaranthus retroflexus); conditions: amount of applied herbicide 320 g/ha
How it was run: as §2

lambsquarters [11] = assay: Test Example 4: herbicidal effect by soil treatment (Table 19, symbol O); format: in vivo, lambsquarters (Chenopodium album); conditions: amount of applied herbicide 320 g/ha
How it was run: as §2

chickweed [12] = assay: Test Example 4: herbicidal effect by soil treatment (Table 19, symbol P); format: in vivo, common chickweed (Stellaria media); conditions: amount of applied herbicide 320 g/ha
How it was run: as §2

persian speedwell [13] = assay: Test Example 4: herbicidal effect by soil treatment (Table 19, symbol R); format: in vivo, Persian speedwell (Veronica persica); conditions: amount of applied herbicide 320 g/ha
How it was run: as §2

southern crabgrass [14] = assay: Test Example 5: herbicidal effect by foliage application, plastic box (Table 20, symbol F); format: in vivo, southern crabgrass (Digitaria ciliaris); conditions: amount of applied herbicide 320 g/ha; foliage application after 14-day growth; evaluated three weeks after application
How it was run: (§3)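 Foliar spray test: emulsion formulation diluted in water to a set application rate, sprayed onto 14-day-old plants raised in diluvial soil at 25° C to 30° C under glass. Both herbicidal effect and crop effect rated visually three weeks later.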

green foxtail [15] = assay: Test Example 5: herbicidal effect by foliage application, plastic box (Table 20, symbol G); format: in vivo, green foxtail (Setaria viridis); conditions: amount of applied herbicide 320 g/ha; foliage application after 14-day growth; evaluated three weeks after application
How it was run: as §3

barnyard grass [16] = assay: Test Example 5: herbicidal effect by foliage application, plastic box (Table 20, symbol H); format: in vivo, barnyard grass (Echinochloa crus-galli); conditions: amount of applied herbicide 320 g/ha; foliage application after 14-day growth; evaluated three weeks after application
How it was run: as §3

wild oat [17] = assay: Test Example 5: herbicidal effect by foliage application, plastic box (Table 20, symbol I); format: in vivo, wild oat (Avena fatua); conditions: amount of applied herbicide 320 g/ha; foliage application after 14-day growth; evaluated three weeks after application
How it was run: as §3

blackgrass [18] = assay: Test Example 5: herbicidal effect by foliage application, plastic box (Table 20, symbol J); format: in vivo, blackgrass (Alopecurus myosuroides); conditions: amount of applied herbicide 320 g/ha; foliage application after 14-day growth; evaluated three weeks after application
How it was run: as §3

Italian ryegrass [19] = assay: Test Example 5: herbicidal effect by foliage application, plastic box (Table 20, symbol K); format: in vivo, Italian ryegrass (Lolium multiflorum); conditions: amount of applied herbicide 320 g/ha; foliage application after 14-day growth; evaluated three weeks after application
How it was run: as §3

windgrass [20] = assay: Test Example 5: herbicidal effect by foliage application, plastic box (Table 20, symbol L); format: in vivo, windgrass (Apera spica-venti); conditions: amount of applied herbicide 320 g/ha; foliage application after 14-day growth; evaluated three weeks after application
How it was run: as §3

velvetleaf [21] = assay: Test Example 5: herbicidal effect by foliage application, plastic box (Table 20, symbol M); format: in vivo, velvetleaf (Abutilon theophrasti); conditions: amount of applied herbicide 320 g/ha; foliage application after 14-day growth; evaluated three weeks after application
How it was run: as §3

redroot pigweed [22] = assay: Test Example 5: herbicidal effect by foliage application, plastic box (Table 20, symbol N); format: in vivo, redroot pigweed (Amaranthus retroflexus); conditions: amount of applied herbicide 320 g/ha; foliage application after 14-day growth; evaluated three weeks after application
How it was run: as §3

lambsquarters [23] = assay: Test Example 5: herbicidal effect by foliage application, plastic box (Table 20, symbol O); format: in vivo, lambsquarters (Chenopodium album); conditions: amount of applied herbicide 320 g/ha; foliage application after 14-day growth; evaluated three weeks after application
How it was run: as §3

chickweed [24] = assay: Test Example 5: herbicidal effect by foliage application, plastic box (Table 20, symbol P); format: in vivo, common chickweed (Stellaria media); conditions: amount of applied herbicide 320 g/ha; foliage application after 14-day growth; evaluated three weeks after application
How it was run: as §3

persian speedwell [25] = assay: Test Example 5: herbicidal effect by foliage application, plastic box (Table 20, symbol R); format: in vivo, Persian speedwell (Veronica persica); conditions: amount of applied herbicide 320 g/ha; foliage application after 14-day growth; evaluated three weeks after application
How it was run: as §3

SMILES	herbicidal effect on barnyard grass (H) (barnyard grass [1])	herbicidal effect on Chinese sprangletop (D) (Chinese sprangletop)	herbicidal effect on rice flat sedge (E) (rice flat sedge)	F: southern crabgrass, herbicidal effect grade (southern crabgrass [2])	G: green foxtail, herbicidal effect grade (green foxtail [3])	H: barnyard grass, herbicidal effect grade (barnyard grass [4])	I: wild oat, herbicidal effect grade (wild oat [5])	J: blackgrass, herbicidal effect grade (blackgrass [6])	K: Italian ryegrass, herbicidal effect grade (Italian ryegrass [7])	L: windgrass, herbicidal effect grade (windgrass [8])	M: velvetleaf, herbicidal effect grade (velvetleaf [9])	N: redroot pigweed, herbicidal effect grade (redroot pigweed [10])	O: lambsquarters, herbicidal effect grade (lambsquarters [11])	P: chickweed, herbicidal effect grade (chickweed [12])	R: persian speedwell, herbicidal effect grade (persian speedwell [13])	Herbicidal effect by foliage application, F: southern crabgrass (southern crabgrass [14])	Herbicidal effect by foliage application, G: green foxtail (green foxtail [15])	Herbicidal effect by foliage application, H: barnyard grass (barnyard grass [16])	Herbicidal effect by foliage application, I: wild oat (wild oat [17])	Herbicidal effect by foliage application, J: blackgrass (blackgrass [18])	other results
COc1ccc(-c2sc3cc(F)c(F)cc3c2-c2c(O)c(C)nn(C)c2=O)cc1OC [5-033]	4 (Herbicidal rate of 70% or more and less than 90%)	3 (Herbicidal rate of 40% or more and less than 70%)	4 (Herbicidal rate of 70% or more and less than 90%)	3 (Herbicidal rate of 40% or more and less than 70%)	3 (Herbicidal rate of 40% or more and less than 70%)	3 (Herbicidal rate of 40% or more and less than 70%)	0 (Herbicidal rate of 5% or less (almost no effect))	0 (Herbicidal rate of 5% or less (almost no effect))	0 (Herbicidal rate of 5% or less (almost no effect))	0 (Herbicidal rate of 5% or less (almost no effect))	0 (Herbicidal rate of 5% or less (almost no effect))	3 (Herbicidal rate of 40% or more and less than 70%)	4 (Herbicidal rate of 70% or more and less than 90%)	1 (Herbicidal rate of 5% or more and less than 20%)	0 (Herbicidal rate of 5% or less (almost no effect))	1 (Herbicidal rate of 5% or more and less than 20%)	4 (Herbicidal rate of 70% or more and less than 90%)	3 (Herbicidal rate of 40% or more and less than 70%)	0 (Herbicidal rate of 5% or less (almost no effect))	0 (Herbicidal rate of 5% or less (almost no effect))	Herbicidal effect by foliage application, K: Italian ryegrass (Italian ryegrass [19]): 4 (Herbicidal rate of 70% or more and less than 90%); Herbicidal effect by foliage application, L: windgrass (windgrass [20]): 0 (Herbicidal rate of 5% or less (almost no effect)); Herbicidal effect by foliage application, M: velvetleaf (velvetleaf [21]): 4 (Herbicidal rate of 70% or more and less than 90%); Herbicidal effect by foliage application, N: redroot pigweed (redroot pigweed [22]): 3 (Herbicidal rate of 40% or more and less than 70%); Herbicidal effect by foliage application, O: lambsquarters (lambsquarters [23]): 4 (Herbicidal rate of 70% or more and less than 90%); Herbicidal effect by foliage application, P: chickweed (chickweed [24]): 5 (Herbicidal rate of 90% or more (almost completely withered)); Herbicidal effect by foliage application, R: persian speedwell (persian speedwell [25]): 5 (Herbicidal rate of 90% or more (almost completely withered))
CCCC(=O)Oc1c(C)nn(C)c(=O)c1-c1c(-c2ccc(F)cc2)sc2cc(Cl)c(Cl)cc12 [5-040]	4 (Herbicidal rate of 70% or more and less than 90%)	1 (Herbicidal rate of 5% or more and less than 20%)	0 (Herbicidal rate of 5% or less (almost no effect))	0 (Herbicidal rate of 5% or less (almost no effect))	3 (Herbicidal rate of 40% or more and less than 70%)	0 (Herbicidal rate of 5% or less (almost no effect))	0 (Herbicidal rate of 5% or less (almost no effect))	0 (Herbicidal rate of 5% or less (almost no effect))	0 (Herbicidal rate of 5% or less (almost no effect))	0 (Herbicidal rate of 5% or less (almost no effect))	2 (Herbicidal rate of 20% or more and less than 40%)	4 (Herbicidal rate of 70% or more and less than 90%)	0 (Herbicidal rate of 5% or less (almost no effect))	0 (Herbicidal rate of 5% or less (almost no effect))	0 (Herbicidal rate of 5% or less (almost no effect))	0 (Herbicidal rate of 5% or less (almost no effect))	1 (Herbicidal rate of 5% or more and less than 20%)	2 (Herbicidal rate of 20% or more and less than 40%)	3 (Herbicidal rate of 40% or more and less than 70%)	0 (Herbicidal rate of 5% or less (almost no effect))	Herbicidal effect by foliage application, K: Italian ryegrass (Italian ryegrass [19]): 0 (Herbicidal rate of 5% or less (almost no effect)); Herbicidal effect by foliage application, L: windgrass (windgrass [20]): 3 (Herbicidal rate of 40% or more and less than 70%); Herbicidal effect by foliage application, M: velvetleaf (velvetleaf [21]): 1 (Herbicidal rate of 5% or more and less than 20%); Herbicidal effect by foliage application, N: redroot pigweed (redroot pigweed [22]): 3 (Herbicidal rate of 40% or more and less than 70%); Herbicidal effect by foliage application, O: lambsquarters (lambsquarters [23]): 3 (Herbicidal rate of 40% or more and less than 70%); Herbicidal effect by foliage application, P: chickweed (chickweed [24]): 5 (Herbicidal rate of 90% or more (almost completely withered)); Herbicidal effect by foliage application, R: persian speedwell (persian speedwell [25]): 4 (Herbicidal rate of 70% or more and less than 90%)
